In US7932270B2 (Cytokinetics, Inc., priority 2006, dated 2011):

Target: T1, chicken gizzard smooth muscle myosin subfragment-1 chemically crosslinked to cardiac or skeletal actin (Gallus gallus, UniProt P10587)
T1 construct: chicken gizzard smooth muscle myosin subfragment-1; from tissue; host or cells: chicken gizzard
Assay: Smooth muscle myosin ATPase dose response assay (pyruvate kinase/horseradish peroxidase/pyruvate oxidase-coupled, amplex red fluorescence)
Format: biochemical
Conditions: read-out: IC50 Arithmetic Mean
Summary of the method: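 Readout is amplex red signal from coupled ATPase of actin-crosslinked gizzard myosin S1 (0.15 mM ATP, 12 mM K-PIPES, pH 7.00). IC50 is the half-maximal activity point of a four-parameter Hill fit.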

T1 sequence (P02607 2-151): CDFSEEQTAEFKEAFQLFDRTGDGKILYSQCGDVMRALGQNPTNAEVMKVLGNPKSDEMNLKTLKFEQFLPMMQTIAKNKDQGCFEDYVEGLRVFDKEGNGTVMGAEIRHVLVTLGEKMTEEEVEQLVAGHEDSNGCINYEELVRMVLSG
T1 sequence (P10587 84-789): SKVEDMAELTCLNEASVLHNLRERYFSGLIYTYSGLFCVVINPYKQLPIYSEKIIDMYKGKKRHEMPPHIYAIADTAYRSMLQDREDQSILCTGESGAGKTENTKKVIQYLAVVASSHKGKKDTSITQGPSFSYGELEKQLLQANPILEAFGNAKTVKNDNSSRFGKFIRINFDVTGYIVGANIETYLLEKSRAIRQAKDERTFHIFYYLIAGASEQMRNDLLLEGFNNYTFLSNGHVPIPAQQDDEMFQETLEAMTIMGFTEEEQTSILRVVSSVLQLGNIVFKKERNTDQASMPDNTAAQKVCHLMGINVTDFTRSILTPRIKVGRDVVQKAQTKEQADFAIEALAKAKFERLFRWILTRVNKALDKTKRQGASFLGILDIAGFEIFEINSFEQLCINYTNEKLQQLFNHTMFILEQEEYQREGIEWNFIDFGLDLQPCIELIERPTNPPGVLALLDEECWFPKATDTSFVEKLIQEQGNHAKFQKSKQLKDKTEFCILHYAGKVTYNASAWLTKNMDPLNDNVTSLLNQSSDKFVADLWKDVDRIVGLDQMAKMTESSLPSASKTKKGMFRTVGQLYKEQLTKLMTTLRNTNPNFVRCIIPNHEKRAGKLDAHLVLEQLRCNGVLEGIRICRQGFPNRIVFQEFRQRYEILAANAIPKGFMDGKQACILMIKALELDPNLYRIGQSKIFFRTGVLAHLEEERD

Row | SMILES | IC50 [nM]
1 | O=C(NCc1cccnc1)c1ccc(-c2ccccc2)nc1NCCc1ncccc1F [(2-{[2-(3-fluoro(2-pyridyl))ethyl]amino}-6-phenyl(3-pyridyl))-N-(3-pyridylmethyl)carboxamide] | 1480
2 | CC(C)(C)OC(=O)N[C@@H](CCCN)C(=O)N1CC[C@@H]1CNC(=O)c1ccc(-c2ccccc2C#N)nc1NCCc1cccc(F)c1 [N-[2-((2R)-2-([(6-(2-cyanophenyl)-2-{[2-(3-fluorophenyl)ethyl]amino}(3-pyridyl))carbonylamino]methyl}azetidinyl)(1S)-1-(3-aminopropyl)-2-oxoethyl](tert-butoxy)carboxamide] | 1350
3 | O=C(NCC(O)CO)c1cc(F)c(-c2cn[nH]c2)nc1NCCc1cccc(F)c1 (centres unmarked) [N-(2,3-dihydroxypropyl)(5-fluoro-2-{[2-(3-fluorophenyl)ethyl]amino}-6-pyrazol-4-yl(3-pyridyl))carboxamide] | 448
4 | COC(=O)c1ccc(-c2ccc(C(=O)NCc3cccnc3)c(NCCc3ccccn3)n2)cc1 [methyl 4-{6-[(2-(2-pyridyl)ethyl)amino]-5-[N-(3-pyridylmethyl)carbamoyl]-2-pyridyl}benzoate] | 989
5 | O=C(Nc1cccnc1)c1ccc(-c2ccccc2)nc1NCCc1ccccn1 [{6-phenyl-2-[(2-(2-pyridyl)ethyl)amino](3-pyridyl)}-N-(3-pyridyl)carboxamide] | 5370
6 | O=C(NCc1cccs1)c1ccc(-c2ccccc2)nc1NCCc1ccccn1 [{6-phenyl-2-[(2-(2-pyridyl)ethyl)amino](3-pyridyl)}-N-(2-thienylmethyl)carboxamide] | 1720
7 | Cn1cc(-c2nc(NCCc3cccc(F)c3)c(C(=O)NC[C@H]3CCCN3C(=O)CNC(=O)OC(C)(C)C)cc2F)cn1 [N-[((2R)-1-{2-[(tert-butoxy)carbonylamino]acetyl}pyrrolidin-2-yl)methyl](5-fluoro-2-{[2-(3-fluorophenyl)ethyl]amino}-6-(1-methylpyrazol-4-yl)(3-pyridyl))carboxamide] | 625
8 | O=C(NCc1cccnc1)c1ccc(-c2ccccc2)nc1NCCc1cccc(C(F)(F)F)c1 [[6-phenyl-2-({2-[3-(trifluoromethyl)phenyl]ethyl}amino)(3-pyridyl)]-N-(3-pyridylmethyl)carboxamide] | 8250
9 | O=C(NCc1cccnc1)c1ccc(-c2ccc(CO)cc2)nc1NCCc1ccccn1 [{6-[4-(hydroxymethyl)phenyl]-2-[(2-(2-pyridyl)ethyl)amino](3-pyridyl)}-N-(3-pyridylmethyl)carboxamide] | 2430
10 | CC(C)(C)OC(=O)NCCCC(=O)N1CCC[C@@H]1CNC(=O)c1cc(F)c(-c2ccccc2C#N)nc1NCCc1cccc(F)c1 [N-[((2R)-1-{4-[(tert-butoxy)carbonylamino]butanoyl}pyrrolidin-2-yl)methyl](6-(2-cyanophenyl)-5-fluoro-2-{[2-(3-fluorophenyl)ethyl]amino}(3-pyridyl))carboxamide] | 1060
11 | CN(C)C(=NCc1cncc(CNC(=O)c2ccc(-c3ccccc3C#N)nc2NCCc2cccc(F)c2)c1)N(C)C [N-({5-[3,3-bis(dimethylamino)-2-azaprop-2-enyl](3-pyridyl)}methyl)(6-(2-cyanophenyl)-2-{[2-(3-fluorophenyl)ethyl]amino}(3-pyridyl))carboxamide] | 2720
12 | O=C(NCc1cccnc1)c1cc(F)c(-c2cn[nH]c2)nc1NCCn1cccn1 [{5-fluoro-6-pyrazol-4-yl-2-[(2-pyrazolylethyl)amino](3-pyridyl)}-N-(3-pyridylmethyl)carboxamide] | 211
13 | N#Cc1ccccc1-c1ccc(C(=O)NC[C@H]2CCCN2CCCN)c(NCCc2cccc(F)c2)n1 | 1390
14 | Cn1cc(-c2nc(NCCc3cccc(F)c3)c(C(=O)NC[C@H]3CCCN3C(=O)[C@H](CO)NC(=O)OC(C)(C)C)cc2F)cn1 [N-[2-((2R)-2-{[(5-fluoro-2-{[2-(3-fluorophenyl)ethyl]amino}-6-(1-methylpyrazol-4-yl)(3-pyridyl))carbonylamino]methyl}pyrrolidinyl)(1S)-1-(hydroxymethyl)-2-oxoethyl](tert-butoxy)carboxamide] | 1200
15 | CC(C)(C)OC(=O)NCCCCC(=O)N1CCC[C@@H]1CNC(=O)c1ccc(-c2ccccc2C#N)nc1NCCc1cccc(F)c1 [N-[((2R)-1-{5-[(tert-butoxy)carbonylamino]pentanoyl}pyrrolidin-2-yl)methyl](6-(2-cyanophenyl)-2-{[2-(3-fluorophenyl)ethyl]amino}(3-pyridyl))carboxamide] | 2940
16 | CC(=O)N1CCC(CNC(=O)c2ccc(-c3ccccc3)nc2NCCc2ccccn2)CC1 [N-[(1-acetyl(4-piperidyl))methyl]{6-phenyl-2-[(2-(2-pyridyl)ethyl)amino](3-pyridyl)}carboxamide] | 96700
17 | C[C@@H](CN=[N+]=[N-])CNC(=O)c1cc(F)c(-c2cnn(C)c2)nc1NCCc1cccc(F)c1 [N-((2R)-4-diazo-2-methyl-4-azabut-4-enyl)(5-fluoro-2-{[2-(3-fluorophenyl)ethyl]amino}-6-(1-methylpyrazol-4-yl)(3-pyridyl))carboxamide] | 118
18 | C[C@H](CNC(=O)c1cc(F)c(-c2cnn(C)c2)nc1NCCc1cccc(F)c1)C(N)=O [N-((2R)-2-carbamoylpropyl)(5-fluoro-2-{[2-(3-fluorophenyl)ethyl]amino}-6-(1-methylpyrazol-4-yl)(3-pyridyl))carboxamide] | 89
19 | C[C@@H](N)CNC(=O)c1cc(F)c(-c2cnn(C)c2)nc1NCCc1cccc(F)c1 [N-((2R)-2-aminopropyl)(5-fluoro-2-{[2-(3-fluorophenyl)ethyl]amino}-6-(1-methylpyrazol-4-yl)(3-pyridyl))carboxamide] | 398
20 | CS(=O)(=O)NCC1CCCCN1C(=O)c1ccc(-c2ccccc2)nc1NCCc1ccccn1 (centres unmarked) [2-{[(methylsulfonyl)amino]methyl}piperidyl 6-phenyl-2-[(2-(2-pyridyl)ethyl)amino](3-pyridyl) ketone] | 22200

Second part, the molecule after the results:

Row | IC50 [nM] | SMILES
21 | 696 | CC(=O)N1CCC[C@H](CNC(=O)c2ccc(-c3ccccc3C#N)nc2NCCc2cccc(F)c2)C1 [N-[((3R)-1-acetyl(3-piperidyl))methyl](6-(2-cyanophenyl)-2-{[2-(3-fluorophenyl)ethyl]amino}(3-pyridyl))carboxamide]
22 | 5610 | N#Cc1ccccc1-c1ccc(C(=O)N[C@H]2CCCNC2=O)c(NCCc2cccc(F)c2)n1 [N-((3S)-2-oxo(3-piperidyl))(6-(2-cyanophenyl)-2-{[2-(3-fluorophenyl)ethyl]amino}(3-pyridyl))carboxamide]
23 | 104 | N#Cc1ccccc1-c1ccc(C(=O)NCC(N)=O)c(NCCc2cccc(F)c2)n1 [N-(carbamoylmethyl)(6-(2-cyanophenyl)-2-{[2-(3-fluorophenyl)ethyl]amino}(3-pyridyl))carboxamide]
24 | 624 | N#Cc1ccccc1-c1ccc(C(=O)NCc2ncccc2CN)c(NCCc2cccc(F)c2)n1 [N-{[3-(aminomethyl)(2-pyridyl)]methyl}(6-(2-cyanophenyl)-2-{[2-(3-fluorophenyl)ethyl]amino}(3-pyridyl))carboxamide]
25 | 13700 | N#Cc1ccccc1-c1ccc(C(=O)NCC(CN)C(=O)NCCN)c(NCCc2cccc(F)c2)n1 (centres unmarked) [3-amino-N-(2-aminoethyl)-2-{[(6-(2-cyanophenyl)-2-{[2-(3-fluorophenyl)ethyl]amino}(3-pyridyl))carbonylamino]methyl}propanamide]
26 | 5840 | C[C@@H](CNC(=O)c1ccc(-c2ccccc2C#N)nc1NCCc1cccc(F)c1)N(C)S(C)(=O)=O [N-{(2S)-2-[methyl(methylsulfonyl)amino]propyl}(6-(2-cyanophenyl)-2-{[2-(3-fluorophenyl)ethyl]amino}(3-pyridyl))carboxamide]
27 | 2150 | N#Cc1ccccc1-c1ccc(C(=O)NC[C@@H]2CCCNC2)c(NCCc2cccc(F)c2)n1 [N-[((3R)(3-piperidyl))methyl](6-(2-cyanophenyl)-2-{[2-(3-fluorophenyl)ethyl]amino}(3-pyridyl))carboxamide]
28 | 2920 | CN1CCN[C@@H](CNC(=O)c2ccc(-c3ccccc3C#N)nc2NCCc2cccc(F)c2)C1 [N-[((2S)-4-methylpiperazin-2-yl)methyl](6-(2-cyanophenyl)-2-{[2-(3-fluorophenyl)ethyl]amino}(3-pyridyl))carboxamide]
29 | 515 | N#Cc1ccccc1-c1ccc(C(=O)NCc2ccc(CN)cn2)c(NCCc2cccc(F)c2)n1 [N-{[5-(aminomethyl)(2-pyridyl)]methyl}(6-(2-cyanophenyl)-2-{[2-(3-fluorophenyl)ethyl]amino}(3-pyridyl))carboxamide]
30 | 816 | N#Cc1ccccc1-c1ccc(C(=O)N[C@@H](CN)C(N)=O)c(NCCc2cccc(F)c2)n1 [N-((1S)-2-amino-1-carbamoylethyl)(6-(2-cyanophenyl)-2-{[2-(3-fluorophenyl)ethyl]amino}(3-pyridyl))carboxamide]
31 | 985 | CNC(=O)[C@H](C)NC(=O)c1ccc(-c2ccccc2C#N)nc1NCCc1cccc(F)c1 [(2S)-2-[(6-(2-cyanophenyl)-2-{[2-(3-fluorophenyl)ethyl]amino}(3-pyridyl))carbonylamino]-N-methylpropanamide]
32 | 320 | CC(C)(CNC(=O)c1ccc(-c2ccccc2C#N)nc1NCCc1cccc(F)c1)NC(=O)CN
33 | 532 | CN(C)C(=O)CNC(=O)c1ccc(-c2ccccc2C#N)nc1NCCc1cccc(F)c1 [2-[(6-(2-cyanophenyl)-2-{[2-(3-fluorophenyl)ethyl]amino}(3-pyridyl))carbonylamino]-N,N-dimethylacetamide]
34 | 1380 | CN(CCNC(=O)c1ccc(-c2ccccc2C#N)nc1NCCc1cccc(F)c1)S(C)(=O)=O [(6-(2-cyanophenyl)-2-{[2-(3-fluorophenyl)ethyl]amino}(3-pyridyl))-N-{2-[methyl(methylsulfonyl)amino]ethyl}carboxamide]
35 | 25 | N#Cc1ccccc1-c1ccc(C(=O)NC[C@H]2CCCN2C(=O)CN)c(NCCc2cccc(F)c2)n1 [N-{[(2R)-1-(2-aminoacetyl)pyrrolidin-2-yl]methyl}(6-(2-cyanophenyl)-2-{[2-(3-fluorophenyl)ethyl]amino}(3-pyridyl))carboxamide]
